These results are taken from patent publication US8063012B2, “Neuroprotective peptide inhibitors of AP-1 signaling and uses therefor” (Phylogica Limited, priority 2006, dated 2011).

The test system of data set [1] is primary cortical neuronal cultures. Nature of the data set: Glutamate excitotoxicity in primary cortical neuronal cultures, neuronal viability by MTS assay. Format: cell-based, rat. The settings on record: for neuroprotection compared with JNKI-1D-TAT: 1 μM concentration. As for the experimental part: Neurons were resuspended in Neurobasal (NB; Invitrogen) containing 2% B27 supplement (B27; Invitrogen). Before seeding, culture vessels comprising either a 96-well plastic plate or 24-well plastic plate with 13 mm glass coverslips (ProSciTech, Australia), were coated with poly-D-lysine (50 μg/mL; 70-150K; Sigma) and incubated overnight at room temperature. […] Neurons were plated to obtain approximately 10,000 viable neurons for each well of a 96-well plate, or 200,000 viable neurons per well of a 24-well plate, on day in vitro (DIV) […]. […] On DIV 4, one third of the culture medium was removed and replaced with fresh NB/2% B27 containing the mitotic inhibitor, cytosine arabinofuranoside (Sigma) at 1 μM concentration. On DIV 8, one half of the culture medium was replaced with NB/2% B27.
(§1) To induce glutamate excitotoxicity in the cortical neuronal cultures (96-well plate format), 50 μl of conditioned media containing 200 μM glutamate was added to culture wells containing 50 μl conditioned media (100 μM final glutamate concentration). Cultures were incubated at 37° C. in a CO2 incubator for 5 minutes, after which time the media was replaced with 100 μl of 50% NB/2% N2 and 50% balance salt solution (NB/N2:BSS).
Untreated and glutamate-treated control samples received media additions with and without glutamate respectively.
(§2) Eighteen hours after glutamate exposure, neuronal cultures were examined by light microscopy for qualitative assessment of neuronal damage. Neuronal viability was quantitatively measured by 3-(4,5,dimethyliazol-2-yl)-5-(3-carboxymethoxy-phenyl)-2-(4-sulfophenyl)-2H-tetrazolium salt (MTS) assay (Promega, Australia). The MTS assay measures the mitochondrial conversion of the tetrazolium salt to a water-soluble brown formazan salt, which is detected spectrophotometrically at 495 nm. MTS absorbance data was converted to reflect proportional cell viability relative to both the untreated and glutamate treated controls. […] All assays were performed with quadruplicate sister neuronal cultures repeated a minimum of four times independently.

Data set [2] shares this test system. Nature of the data set: Light microscopy assessment of neuronal damage after glutamate exposure. Format: cell-based, rat. The settings on record: for neuronal morphology (cellular rounding, survival) after glutamate exposure: light microscopy, one hour to 18 hours post glutamate exposure; for neurons that appeared intact and viable: Sprague-Dawley, rat, 18 hours. Here is the method:
Cortical neuronal cultures were established as described by Meloni et al., Neuroscience 108, 17-26, 2001. Briefly, cortical tissue from E18-E19 Sprague-Dawley rats was dissociated in Dulbelcco's Modified Eagle Medium (DMEM; Invitrogen, Australia) supplemented with 1.3 mM L-cysteine, 0.9 mM NaHCO3, 10 units/ml papain (Sigma, USA) and 50 units/ml DNase (Sigma) and washed in cold DMEM/10% (v/v) horse serum. Neurons were resuspended in Neurobasal (NB; Invitrogen) containing 2% B27 supplement (B27; Invitrogen). Before seeding, culture vessels comprising either a 96-well plastic plate or 24-well plastic plate with 13 mm glass coverslips (ProSciTech, Australia), were coated with poly-D-lysine (50 μg/mL; 70-150K; Sigma) and incubated overnight at room temperature. The poly-D-lysine was removed and replaced with NB (containing 2% B27; 4% fetal bovine serum; 1% horse serum; 62.5 μM glutamate; 25 μM 2-mercaptoethanol; and 30 μg/mL streptomycin and 30 μg/mL penicillin). Neurons were plated to obtain approximately 10,000 viable neurons for each well of a 96-well plate, or 200,000 viable neurons per well of a 24-well plate, on day in vitro (DIV) […]. Neuronal cultures were maintained in a CO2 incubator (5% CO2, 95% air balance, 98% humidity) at 37° C. On DIV 4, one third of the culture medium was removed and replaced with fresh NB/2% B27 containing the mitotic inhibitor, cytosine arabinofuranoside (Sigma) at 1 μM concentration. On DIV 8, one half of the culture medium was replaced with NB/2% B27. Cultures were used on DIV 11 or 12, and consisted of >95% neurons.
as §1, §2

Setting [3] is: 1 μM extracellular concentration.
Where [4] appears, read: Sprague-Dawley, rat, 18 h, 5 μM.
Setting [5] is: 2 μM extracellular concentration.
The mark [6] stands for this setting: 5 μM extracellular peptide, 100 μM glutamate 5 min, MTS 18 h, no insult = 100%.

Non-standard residues stand in square brackets, D forms with d. Residues, ends and D or L forms follow the SMILES beside them. No end group written: not given here.

`CC[C@@H](C)[C@@H](NC(=O)[C@H](N)Cc1ccc(O)cc1)C(=O)N[C@H](Cc1ccc(O)cc1)C(=O)N1CCC[C@@H]1C(=O)N[C@H](Cc1ccc(O)cc1)C(=O)N[C@H](C)C(=O)N[C@H](Cc1ccc(O)cc1)C(=O)N[C@H](CO)C(=O)N[C@H](CCC(N)=O)C(=O)N[C@H](CC(N)=O)C(=O)N[C@@H](C(=O)N[C@H](CC(C)C)C(=O)NCC(=O)N[C@H](CCCNC(=N)N)C(=O)N[C@H](CCCNC(=N)N)C(=O)N[C@H](CCCNC(=N)N)C(=O)N[C@H](CCC(N)=O)C(=O)N[C@H](CCCNC(=N)N)C(=O)N[C@H](CCCNC(=N)N)C(=O)N[C@H](CCCCN)C(=O)N[C@H](CCCCN)C(=O)N[C@H](CCCNC(=N)N)C(=O)NCC(=O)O)[C@H](C)CC` [PYC19D-TAT]: the “neuroprotection compared with JNKI-1D-TAT” value in data set [1] is “greater neuroprotection than JNKI-1D-TAT”. Besides, the “neuroprotection following glutamate excitotoxicity” value in data set [1] (setting [3]) is “significant neuroprotection”. In addition, in data set [1] (setting [4]), the “neuronal viability following glutamate excitotoxicity” value amounted to 68%. Also, the “neuroprotection of D-isoform compared with L-isoform” value in data set [1] (concentrations higher than 1 μM) is “clearly provides enhanced neuroprotection”.

Turning to GRKKRRQRRRGVSINQEHHRLLPL [PYC41L-TAT], the “neuroprotection following glutamate excitotoxicity” value in data set [1] (setting [3]) is on record as “neuroprotective trend”; in data set [1] (setting [5]), “initial significant neuroprotection”. Also, the “neuronal viability following glutamate excitotoxicity” value in data set [1] (setting [6]) amounted to 38%. The “neuronal morphology (cellular rounding, survival) after glutamate exposure” value (“neuronal morphology” below) in data set [2] is “did not begin to round and survived glutamate excitotoxicity”.

Take `CC(C)C[C@@H](NC(=O)[C@@H](Cc1ccccc1)NC(=O)[C@H]1CCCN1C(=O)[C@@H](CCC(N)=O)NC(=O)[C@H](NC(=O)[C@H]1CCCN1C(=O)[C@@H](CCCNC(=N)N)NC(=O)[C@@H](CO)NC(=O)[C@@H](CCC(N)=O)NC(=O)[C@@H](CC(=O)O)NC(=O)[C@H](N)[C@H](C)O)C(C)C)C(=O)N[C@H](CC(N)=O)C(=O)N[C@H](CC(C)C)C(=O)N[C@@H](C(=O)N[C@@H](C(=O)N1CCC[C@@H]1C(=O)N[C@H](CCCNC(=N)N)C(=O)N[C@H](CCCCN)C(=O)N1CCC[C@@H]1C(=O)N[C@H](CCCNC(=N)N)C(=O)N1CCC[C@@H]1C(=O)N1CCC[C@@H]1C(=O)N[C@H](CCCNC(=N)N)C(=O)N[C@H](CCCNC(=N)N)C(=O)N[C@H](CCCNC(=N)N)C(=O)N[C@H](CCC(N)=O)C(=O)N[C@H](CCCNC(=N)N)C(=O)N[C@H](CCCNC(=N)N)C(=O)N[C@H](CCCCN)C(=O)N[C@H](CCCCN)C(=O)N[C@H](CCCNC(=N)N)C(=O)NCC(=O)O)[C@H](C)O)[C@H](C)O` [JNK1-1D-TAT, reference compound]: the “neuronal viability following glutamate excitotoxicity” value came to 75% in data set [1] (5 μM extracellular peptide, 100 μM glutamate 5 min, MTS 18 h, no insult = 100%, listed as JNKI-1 D-TAT) and 89% in data set [1] (5 μM extracellular peptide, 100 μM glutamate 5 min, MTS 18 h, no insult = 100%, listed as JNKI-1D-TAT). For the same molecule, the “extracellular concentration providing significant neuroprotection” value in data set [1] (glutamate excitotoxicity, dose response 0.1-10 μM) is ≥ 2 µM. Further, the “concentrations at which significant neuroprotection is exhibited” value in data set [1] (glutamate excitotoxicity, p<0.0077) is reported as “micromolar concentrations”. Moreover, the “neuronal morphology” value in data set [2] was “did not begin to round and survived glutamate excitotoxicity”.

Consider “GRKKRRQRRRGGLQGRRQPGQQPQGRWSGRALPAHR [PYC38/39L-TAT]”, for which the “neuroprotection following glutamate excitotoxicity” value is listed as “neuroprotective trend” in data set [1] (setting [3]) and “initial significant neuroprotection” in data set [1] (setting [5]). Besides, in data set [1] (setting [6]), the “neuronal viability following glutamate excitotoxicity” value worked out at 69%. In addition, the “neuronal morphology” value in data set [2] is “did not begin to round and survived glutamate excitotoxicity”.

On to `CC[C@@H](C)[C@@H](NC(=O)[C@@H](CCCCN)NC(=O)[C@H]1CCCN1)C(=O)N[C@H](CO)C(=O)N[C@H](CCC(N)=O)C(=O)N[C@H](Cc1ccc(O)cc1)C(=O)NCC(=O)N[C@H](CCC(N)=O)C(=O)N[C@H](CCCNC(=N)N)C(=O)N[C@H](CCCNC(=N)N)C(=O)N[C@H](CCCNC(=N)N)C(=O)NCC(=O)N[C@H](CCC(N)=O)C(=O)N[C@H](CC(C)C)C(=O)NCC(=O)O` [PYC36D, Pro Lys Ile Ser Gln Tyr Gly Gln Arg Arg Arg Gly Gln Leu Gly] (H-[dP][dK][dI][dS][dQ][dY]G[dQ][dR][dR][dR]G[dQ][dL]G-OH; N-terminus and C-terminus assumed), for which, in data set [2], the “neurons that appeared intact and viable” value is given as 2-5%; the “neuronal morphology” value was “displayed cellular rounding”.

Consider `CC[C@@H](C)[C@@H](NC(=O)[C@@H](CCC(=O)O)NC(=O)[C@@H](CO)NC(=O)[C@@H](CO)NC(=O)[C@@H](CO)NC(=O)[C@@H](CCCCN)NC(=O)[C@@H](CCCNC(=N)N)NC(=O)[C@@H](CCC(=O)O)NC(=O)[C@H](N)CCCNC(=N)N)C(=O)NCC(=O)NCC(=O)N[C@H](CO)C(=O)N[C@H](CCCNC(=N)N)C(=O)N[C@@H](C(=O)N[C@H](CO)C(=O)N[C@H](CCC(N)=O)C(=O)N[C@H](Cc1ccc(O)cc1)C(=O)N[C@H](C)C(=O)NCC(=O)O)[C@H](C)CC` [PYC35D, Arg Glu Arg Lys Ser Ser Ser Glu Ile Gly Gly Ser Arg Ile Ser Gln Tyr Ala Gly] (H-[dR][dE][dR][dK][dS][dS][dS][dE][dI]GG[dS][dR][dI][dS][dQ][dY][dA]G-OH; N-terminus and C-terminus assumed), for which, in data set [2], the “neurons that appeared intact and viable” value was 2-5%; the “neuronal morphology” value is recorded as “displayed cellular rounding”.

On to `CC(C)C[C@@H](NC(=O)[C@H]1CCCN1C(=O)[C@@H](C)NC(=O)[C@@H](Cc1c[nH]cn1)NC(=O)[C@H](N)CCCNC(=N)N)C(=O)N[C@H](C)C(=O)N[C@H](CCCNC(=N)N)C(=O)NCC(=O)N[C@H](CO)C(=O)N[C@H](Cc1c[nH]c2ccccc12)C(=O)N[C@H](CCCNC(=N)N)C(=O)NCC(=O)N[C@H](CCC(N)=O)C(=O)N1CCC[C@@H]1C(=O)N[C@H](CCC(N)=O)C(=O)N[C@H](CCC(N)=O)C(=O)NCC(=O)N1CCC[C@@H]1C(=O)N[C@H](CCC(N)=O)C(=O)N[C@H](CCCNC(=N)N)C(=O)N[C@H](CCCNC(=N)N)C(=O)NCC(=O)N[C@H](CCC(N)=O)C(=O)N[C@H](CC(C)C)C(=O)NCC(=O)NCC(=O)N[C@H](CCCNC(=N)N)C(=O)N[C@H](CCCNC(=N)N)C(=O)N[C@H](CCCNC(=N)N)C(=O)N[C@H](CCC(N)=O)C(=O)N[C@H](CCCNC(=N)N)C(=O)N[C@H](CCCNC(=N)N)C(=O)N[C@H](CCCCN)C(=O)N[C@H](CCCCN)C(=O)N[C@H](CCCNC(=N)N)C(=O)NCC(=O)O` [PYC38/39D-TAT] (H-[dR][dH][dA][dP][dL][dA][dR]G[dS][dW][dR]G[dQ][dP][dQ][dQ]G[dP][dQ][dR][dR]G[dQ][dL]GG[dR][dR][dR][dQ][dR][dR][dK][dK][dR]G-OH; N-terminus and C-terminus assumed), for which, in data set [1], the “neuroprotection compared with JNKI-1D-TAT” value was “greater neuroprotection than JNKI-1D-TAT”. Besides, the “neuroprotection following glutamate excitotoxicity” value in data set [1] (setting [5]) was “initial significant neuroprotection”. Further, in data set [1] (setting [4]), the “neuronal viability following glutamate excitotoxicity” value was 83%.

On to `CC[C@@H](C)[C@@H](NC(=O)[C@@H](CC(N)=O)NC(=O)[C@@H](CCC(N)=O)NC(=O)[C@@H](CCC(=O)O)NC(=O)[C@@H](Cc1c[nH]cn1)NC(=O)[C@@H](Cc1c[nH]cn1)NC(=O)[C@@H](CCCNC(=N)N)NC(=O)[C@@H](CC(C)C)NC(=O)[C@@H](CC(C)C)NC(=O)[C@H]1CCCN1C(=O)[C@H](N)CC(C)C)C(=O)N[C@H](CO)C(=O)N[C@@H](C(=O)NCC(=O)N[C@H](CCCNC(=N)N)C(=O)N[C@H](CCCNC(=N)N)C(=O)N[C@H](CCCNC(=N)N)C(=O)N[C@H](CCC(N)=O)C(=O)N[C@H](CCCNC(=N)N)C(=O)N[C@H](CCCNC(=N)N)C(=O)N[C@H](CCCCN)C(=O)N[C@H](CCCCN)C(=O)N[C@H](CCCNC(=N)N)C(=O)NCC(=O)O)C(C)C` [PYC41D-TAT], for which the “neuroprotection following glutamate excitotoxicity” value in data set [1] (setting [5]) is “initial significant neuroprotection”. In addition, the “neuronal viability following glutamate excitotoxicity” value in data set [1] (setting [4]) stood at 40%.
